Measurements as given in PubChem BioAssay AID2060490 (Molecular Pharmacology Branch, DTP, NCI, 2025).

Tested on: 885512-296-R-J2-PDC complex spheroid viability
Test: Anticancer human tumor 885512-296-R-J2-PDC patient-derived breast carcinoma cell line growth inhibition [GQUAD]
Settings: for IC50: curve of first compound; for viability, T/C: stronger effect = lower value; active = viability on the fitted dose curve at most 10% of control; inactive = the rest
Procedure, shortened: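 Viability of tumor cells grown as complex spheroids with endothelial and stromal cells, exposed to drug combinations. Top concentration at or near clinical Cmax (else 10 microM), diluted in half-log increments.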

[1] = second compound 0.0316 µM, first compound 0.0316 µM
[2] = second compound 0.0316 µM, first compound 0.1 µM
[3] = second compound 0.0316 µM, first compound 0.316 µM
[4] = second compound 0.0316 µM, first compound 1 µM
[5] = second compound 0.0316 µM, first compound 3.16 µM
[6] = second compound 0.0316 µM, first compound 10 µM
[7] = second compound 0.1 µM, first compound 0.0316 µM
[8] = second compound 0.1 µM, first compound 0.1 µM
[9] = second compound 0.1 µM, first compound 0.316 µM
[10] = second compound 0.1 µM, first compound 1 µM
[11] = second compound 0.1 µM, first compound 3.16 µM
[12] = second compound 0.1 µM, first compound 10 µM
[13] = second compound 0.316 µM, first compound 0.0316 µM
[14] = second compound 0.316 µM, first compound 0.1 µM
[15] = second compound 0.316 µM, first compound 0.316 µM
[16] = second compound 0.316 µM, first compound 1 µM
[17] = second compound 0.316 µM, first compound 3.16 µM
[18] = second compound 0.316 µM, first compound 10 µM
[19] = second compound 1 µM, first compound 0.0316 µM
[20] = second compound 1 µM, first compound 0.1 µM
[21] = second compound 1 µM, first compound 0.316 µM
[22] = second compound 1 µM, first compound 1 µM
[23] = second compound 1 µM, first compound 3.16 µM
[24] = second compound 1 µM, first compound 10 µM
[25] = second compound 3.16 µM, first compound 0.0316 µM
[26] = second compound 3.16 µM, first compound 0.1 µM
[27] = second compound 3.16 µM, first compound 0.316 µM
[28] = second compound 3.16 µM, first compound 1 µM
[29] = second compound 3.16 µM, first compound 3.16 µM
[30] = second compound 3.16 µM, first compound 10 µM
[31] = second compound 10 µM, first compound 0.0316 µM
[32] = second compound 10 µM, first compound 0.1 µM
[33] = second compound 10 µM, first compound 0.316 µM
[34] = second compound 10 µM, first compound 1 µM
[35] = second compound 10 µM, first compound 3.16 µM
[36] = second compound 10 µM, first compound 10 µM
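Note: spheroids exposed to the compounds for one week.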
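Throughout, for viability, T/C: percent of tumor spheroid viability relative to DMSO vehicle control wells.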

COc1ncnc(C2CC2)c1-c1ncc2cnn(Cc3ccc(-c4nc(C(F)(F)F)cn4C(C)C)cc3)c2n1 + Cc1cnc(CNC(=O)c2c(=O)c3ccc(N4CCCN(C)CC4)nc3n3c2sc2ccccc23)cn1
> 10 µM: IC50 (second compound 0.0316 µM) | IC50 (second compound 0.1 µM)
inactive: viability, T/C [1] 94.7% | viability, T/C [2] 76% | viability, T/C [3] 76.9% | viability, T/C [4] 78.2% | viability, T/C [5] 80.6% | viability, T/C [6] 77.7% | viability, T/C [7] 62.5% | viability, T/C [8] 52.4% | viability, T/C [9] 54.4% | viability, T/C [10] 51.4% | viability, T/C [11] 61.5% | viability, T/C [12] 58.8% | viability, T/C [13] 22.1% | viability, T/C [14] 24.6% | viability, T/C [15] 24.9% | viability, T/C [16] 29.5% | viability, T/C [17] 27.3% | viability, T/C [18] 22.5% | viability, T/C [19] 27.8% | viability, T/C [20] 35.9% | viability, T/C [21] 29.4% | viability, T/C [22] 20.9% | viability, T/C [23] 32% | viability, T/C [24] 29.5% | viability, T/C [25] 23.5% | viability, T/C [26] 29.2% | viability, T/C [27] 26.2% | viability, T/C [28] 29.4% | viability, T/C [29] 32.7% | viability, T/C [30] 29.4%
active: viability, T/C [31] 0.13% | viability, T/C [32] 0.18% | viability, T/C [33] 0.34% | viability, T/C [34] 0.18% | viability, T/C [35] 1.03% | viability, T/C [36] 0.25%
< 0.0316 µM: IC50 (second compound 0.316 µM) | IC50 (second compound 1 µM) | IC50 (second compound 3.16 µM) | IC50 (second compound 10 µM)

O=C(NO)c1cnc(N2CCN(S(=O)(=O)c3ccc4ccccc4c3)CC2)nc1 + CN(C)c1ccc(Nc2c3ccc(NC(=O)CCN4CCCC4)cc3nc3cc(NC(=O)CCN4CCCC4)ccc23)cc1
0.16 µM: IC50 (second compound 0.1 µM)
0.136 µM: IC50 (second compound 0.0316 µM)
active: viability, T/C [4] 3.35% | viability, T/C [5] 0.33% | viability, T/C [6] 0.17% | viability, T/C [10] 3.87% | viability, T/C [11] 0.15% | viability, T/C [12] 0.11% | viability, T/C [16] 3.96% | viability, T/C [17] 0.19% | viability, T/C [18] 0.24% | viability, T/C [22] 5.44% | viability, T/C [23] 0.13% | viability, T/C [24] 0.56% | viability, T/C [28] 5.9% | viability, T/C [29] 0.29% | viability, T/C [30] 0.11% | viability, T/C [33] 9.93% | viability, T/C [34] 3.09% | viability, T/C [35] 0.66% | viability, T/C [36] 0.31%
0.152 µM: IC50 (second compound 0.316 µM)
0.149 µM: IC50 (second compound 1 µM)
inactive: viability, T/C [1] 89.6% | viability, T/C [2] 61.1% | viability, T/C [3] 20% | viability, T/C [7] 90.8% | viability, T/C [8] 67.4% | viability, T/C [9] 25.1% | viability, T/C [13] 84.1% | viability, T/C [14] 63.9% | viability, T/C [15] 25.8% | viability, T/C [19] 74.8% | viability, T/C [20] 65.2% | viability, T/C [21] 21.4% | viability, T/C [25] 60.2% | viability, T/C [26] 50.6% | viability, T/C [27] 21.1% | viability, T/C [31] 15.4% | viability, T/C [32] 15.4%
0.1 µM: IC50 (second compound 3.16 µM)
< 0.0316 µM: IC50 (second compound 10 µM)

Cc1cccc(N(C)C(=O)C2C(O)CCN2c2nc(C)cc(C(F)(F)F)c2C#N)c1 (stereo unspecified) + Cc1[nH]c2ccc(F)cc2c1-c1nc2c3cccnc3c3ncccc3c2[nH]1
inactive: viability, T/C [1] 101% | viability, T/C [2] 92.6% | viability, T/C [3] 108% | viability, T/C [4] 97.3% | viability, T/C [5] 96.7% | viability, T/C [6] 91.5% | viability, T/C [7] 98.5% | viability, T/C [8] 99.8% | viability, T/C [9] 100% | viability, T/C [10] 94.2% | viability, T/C [11] 105% | viability, T/C [12] 93.2% | viability, T/C [13] 90.2% | viability, T/C [14] 98.9% | viability, T/C [15] 98.8% | viability, T/C [16] 94.2% | viability, T/C [17] 90.7% | viability, T/C [18] 82.4% | viability, T/C [19] 83.5% | viability, T/C [20] 78.2% | viability, T/C [21] 87.4% | viability, T/C [22] 88.8% | viability, T/C [23] 90.5% | viability, T/C [24] 68.6% | viability, T/C [25] 30.2% | viability, T/C [26] 30.1% | viability, T/C [27] 16.5% | viability, T/C [28] 22.4% | viability, T/C [29] 20.8% | viability, T/C [30] 19.9%
< 0.0316 µM: IC50 (second compound 3.16 µM) | IC50 (second compound 10 µM)
> 10 µM: IC50 (second compound 0.0316 µM) | IC50 (second compound 0.1 µM) | IC50 (second compound 0.316 µM) | IC50 (second compound 1 µM)
active: viability, T/C [31] 3.35% | viability, T/C [32] 3.56% | viability, T/C [33] 2.69% | viability, T/C [34] 2.33% | viability, T/C [35] 2.29% | viability, T/C [36] 2.63%
